Laboratory results taken from ChEMBL document CHEMBL1201862, “PubChem BioAssay data set” (2004).
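Interpolation was linear, between the two tested concentrations surrounding the appropriate level; five concentrations were tested over 48 hours in 96-well plates. GI50 is the concentration that inhibits growth by half.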 The source made the active and inactive calls. Cut-off read from the data, not from the text of the source: active = GI50 up to about 1.1 µM and inactive = higher.

Legend:
Experiment in all cases: growth of human tumour cells (NCI), 48 h
SW-620 = test system: SW-620
NCI-H460 = test system: NCI-H460
SK-OV-3 = test system: SK-OV-3
786-0 = test system: 786-0
T47D = test system: T47D
KM12 = test system: KM12
NCI-H23 = test system: NCI-H23
MDA-MB-435 = test system: MDA-MB-435
NCI/ADR-RES = test system: NCI/ADR-RES
SNB-19 = test system: SNB-19
SF-295 = test system: SF-295
EKVX = test system: EKVX
MCF7 = test system: MCF7
UO-31 = test system: UO-31
K562 = test system: K562
MDA-MB-231 = test system: MDA-MB-231
MOLT-4 = test system: MOLT-4
NCI-H226 = test system: NCI-H226
OVCAR-3 = test system: OVCAR-3
A549 = test system: A549

Measured: GI50

COc1ccc(OC)c2c1C(=O)C(Cl)=C(Cl)C2=O
inactive: SW-620 1.81 µM | NCI-H460 19.8 µM | SK-OV-3 28.4 µM | 786-0 3.41 µM | T47D 3.17 µM | KM12 17.3 µM | NCI-H23 6.37 µM | MDA-MB-435 2.31 µM | NCI/ADR-RES 2.58 µM | SNB-19 > 46 µM | SF-295 20.1 µM | EKVX 8.3 µM | MCF7 2.6 µM | UO-31 2.44 µM | K562 > 22.2 µM | MDA-MB-231 2.74 µM | MOLT-4 2.51 µM | NCI-H226 18.7 µM | OVCAR-3 2.39 µM | A549 22.3 µM

CCOC(=O)/C=C/[C@H](O[Si](CC)(CC)CC)C(C)(C)C
inactive: SW-620 40.7 µM | NCI-H460 > 100 µM | SK-OV-3 > 100 µM | 786-0 80.5 µM | T47D 67.1 µM | KM12 > 100 µM | NCI-H23 > 100 µM | MDA-MB-435 59 µM | NCI/ADR-RES > 100 µM | SNB-19 36.3 µM | SF-295 42.4 µM | EKVX 40.5 µM | MCF7 25.8 µM | UO-31 > 100 µM | K562 65.8 µM | MDA-MB-231 80.4 µM | MOLT-4 77.1 µM | NCI-H226 > 100 µM | OVCAR-3 52.7 µM | A549 35 µM

CC(C)(C)[C@H]1CCC2(OCCO2)[C@](O)(CCCO)C1
inactive: SW-620 > 100 µM | NCI-H460 > 100 µM | SK-OV-3 > 100 µM | 786-0 > 100 µM | T47D > 100 µM | KM12 > 100 µM | NCI-H23 > 100 µM | MDA-MB-435 > 100 µM | NCI/ADR-RES > 100 µM | SNB-19 > 100 µM | SF-295 > 100 µM | EKVX > 100 µM | MCF7 > 100 µM | UO-31 > 100 µM | K562 > 100 µM | MDA-MB-231 > 100 µM | MOLT-4 > 100 µM | NCI-H226 > 100 µM | OVCAR-3 > 100 µM | A549 > 100 µM

Clc1nc(Cl)c(Cl)c(Cl)n1
inactive: SW-620 6.85 µM | NCI-H460 21.6 µM | SK-OV-3 16.6 µM | 786-0 19.7 µM | T47D 18.2 µM | KM12 13.6 µM | NCI-H23 18.5 µM | MDA-MB-435 21.8 µM | NCI/ADR-RES 23.4 µM | SNB-19 22.3 µM | SF-295 19.3 µM | EKVX 32.1 µM | MCF7 15.8 µM | UO-31 24.5 µM | K562 8.99 µM | MDA-MB-231 18 µM | MOLT-4 6.21 µM | NCI-H226 20.7 µM | OVCAR-3 13.9 µM | A549 19.8 µM

CC(NC(NC(C)C12CC3CC(CC(C3)C1)C2)=C(C(Cl)=C(Cl)Cl)[N+](=O)[O-])C12CC3CC(CC(C3)C1)C2 (stereo not given)
inactive: SW-620 17.6 µM | NCI-H460 4.36 µM | SK-OV-3 71.1 µM | 786-0 13 µM | T47D 20.4 µM | KM12 47.3 µM | NCI-H23 7.96 µM | MDA-MB-435 27.2 µM | NCI/ADR-RES 12 µM | SNB-19 30.2 µM | SF-295 24.9 µM | EKVX 11.3 µM | MCF7 8.36 µM | UO-31 31.9 µM | K562 9.08 µM | MDA-MB-231 4.5 µM | MOLT-4 19.5 µM | NCI-H226 > 26.2 µM | OVCAR-3 9.71 µM | A549 6.31 µM
